Assay results from article PMC12990037, “Discovery of Two Structurally Distinct Classes of Inhibitors Targeting the Nuclease MUS81 and Enhancing Efficacy of Chemotherapy in Cancer Cells” (Journal of Medicinal Chemistry, 2026).
Each block holds one compound with its values, some of them ahead of it.

Key:
[1] = test system: U2OS DR-GFP cells; test: I-SceI-based HR repair reporter assay; format: cell-based; details: Homo sapiens, 72 h
Procedure: (§1) 3 MUS81 inhibitors suppress HR and BIR. (A) I-SceI-based BIR repair efficiency was measured in U2OS BIR-GFP cells treated with DMSO, two different siRNAs targeting MUS81, or the indicated concentrations of MU262 and MU876, and their control analogues for 72 h. The percentage of repair was normalized to the DMSO-treated control (D). n = 3. Error bars represent standard deviation (s.d.); ****p <0.0001 (unpaired, two-tailed t-test). […] (C,D) I-SceI-based HR (C) and NHEJ (D) repair efficiency was measured using U2OS DR-GFP and EJ5-GFP cells, respectively, following treatment with DMSO, MU262,MU876, or their control analogues for 72 h. The percentage of repair was normalized to the DMSO-treated control. n = 3. Error bars represent s.d.; *p <0.05, **p <0.01, ****p <0.0001 (unpaired, two-tailed t-test).
(§2) Reporter DR-GFP and […] U2OS cells along with BIR-GFP cells were transfected with 2.5 μg of I-SceI-expressing pCAGGS vector and subsequently treated with MUS81 inhibitors at the indicated concentrations. After transfection (72 h), cells were trypsinized and resuspended in 3% BSA in PBS. GFP fluorescence detection was carried out using a BD FACSVerse flow cytometer, and the data were analyzed with FlowJo software (BD Life Sciences). Data presented in the graph were normalized to the DMSO-treated sample.

[2] = Microsomal stability; format: in vitro ADME
[3] = test system: U2OS cells; test: Colony formation assay (CFA); format: cell-based; details: 10–12 days
Procedure: 6 MUS81 inhibition induces persistent DNA damage leading to reduced cell survival. (A) U2OS cells were treated with DMSO, cisplatin as a positive control, control or MUS81-targeting siRNA, MU262, MU876, and their negative control counterparts at the indicated concentrations for 72 h. Representative images show staining of a DNA damage marker γH2AX in green with counterstaining of DAPI in blue. The concentration of all inhibitors shown in (A) is 2.5 μM. (B) DNA damage was assessed by quantifying γH2AX foci per nucleus from (A) using CellProfiller software. The graph represents percentage (%) of cells with ≥20 γH2AX foci per nucleus across different concentrations of inhibitors. n = 3; error bars represent s.d. (C) Indicated number of U2OS cells was transfected with a nontargeting siRNA (siCon) or MUS81-targeting siRNA (siMUS81) seeded for a CFA. […] (D) Quantification of (C), error bars represent s.d.; ****p <0.0001 (unpaired, two-tailed t-test). […] (F) Quantification of (E) using a nonlinear regression fitting model. n = 3. […] (H) Quantification of (G) using a nonlinear regression fitting model. n = 3.
Cells were trypsinized, plated at the desired density in 6-well plates for colony forming assay, and then incubated for 10 days. […] The colonies were then solubilized using 10% acetic acid solution, and absorbance was measured with a plate reader. […]

[4] = test system: major cytochrome P450 isoforms; test: Cytochrome P450 inhibition; format: in vitro ADME
[5] = test system: U2OS BIR-GFP cells; test: I-SceI-based BIR repair reporter assay; format: cell-based; details: Homo sapiens, 72 h, normalized to DMSO
Procedure: as §1, §2

[6] = test system: HeLa cells; test: Detection of TFEs by FISH on metaphase spreads; format: cell-based; details: 48 h
Procedure: (§3) 5 Small-molecule inhibitors of MUS81 mimic the effect of siRNA-mediated MUS81 depletion in cells. (A) U2OS cells were treated with DMSO, MUS81-targeting siRNA, MU262, MU876, or their respective control analogues for 48 h. Cytochalasin B (1.25 μg/mL) was added 16 h before harvest to prevent cytokinesis. […] (B) Representative images corresponding to the selected conditions from (A). (C) U2OS and (D) HeLa cells were incubated with DMSO, the indicated inhibitors, and their respective control analogues for 48 h. Nocodazole (200 ng/mL) was added for 5 h prior to the end of treatment to arrest cells in mitosis. Mitotic cells were collected by shake-off, and telomere fragility events (TFEs) were quantified manually for each metaphase spread. At least 70 metaphase spreads were quantified per condition. n = 3; error bars represent s.d.; ***p < 0.001, ****p < 0.0001 (ordinary One-way ANOVA).
(§4) U2OS and HeLa cells were seeded in 10 cm dishes. The next day, the medium was changed, and compounds were added at desired concentrations. This process was repeated after 43 h except that compounds were added together with 200 ng/mL of nocodazole. Cells were collected 5 h later by shake-off and incubated in 75 mM KCl at 37 °C for 10 min. Chromosomes were fixed in ice-cold methanol/acetic acid (3:1) and spread on glass slides. Slides were then treated with 20 μg/mL RNase A (Sigma-Aldrich), in 1x PBS at 37 °C for 1 h, fixed in 4% formaldehyde (Sigma-Aldrich) in 1x PBS for 2 min, and treated with 70 μg/mL pepsin (Sigma-Aldrich) in 2 mM glycine, pH 2 (Sigma-Aldrich) at 37 °C for 5 min. Slides were fixed again with 4% formaldehyde in 1x PBS for 2 min, incubated subsequently in 70%, 90%, and 100% ethanol for 5 min each, and air-dried. A C-rich telomeric PNA probe (5′-AF568-OO-p4[…]-3′; Panagene) diluted in hybridization solution (10 mM Tris–HCl pH 7.2, 70% formamide, 0.5% blocking solution (Roche)) was applied onto the slides followed by incubation at 80 °C for 5 min and at room temperature for 2 h. Slides were washed twice in 10 mM Tris–HCl pH 7.2, 70% formamide, and 0.1% BSA and three times in 100 mM Tris–HCl pH 7.2, 150 mM NaCl, and 0.08% Tween-20 at room temperature for 10 min each. DNA was counterstained with 100 ng/mL DAPI (Sigma-Aldrich) in 1x PBS and slides were mounted in Vectashield (Vector Labs). Images were acquired with a Zeiss Cell Observer equipped with a cooled Axiocam 506 m camera and a 63X/1.4NA oil DIC M27 PlanApo N objective. Image analysis was performed using ImageJ and Photoshop software (Adobe Inc.).

[7] = test system: ALT-positive U2OS cells; test: Detection of TFEs by FISH on metaphase spreads; format: cell-based; details: 48 h
Procedure: as §3, §4

Structure (SMILES): CCc1nn2c(O)c(-c3nc4ccccc4[nH]3)nnc2c1-c1ccc(F)cc1 [Compound 18, 3-(1H-Benzo[d]imidazole-2-yl)-7-ethyl-8-(4-fluorophenyl)pyrazolo[5,1-c][1,2,4]triazin-4-ol]
- IC50 [1]: 0.5 to 1 µM
- microsomal stability [2]: good microsomal stability
- clonogenic cell survival [3]: significantly decreased cell survival
- inhibition of major cytochrome P450 isoforms [4]: do not significantly inhibit major cytochrome P450 isoforms
- IC50 [5]: 1.53 µM
- telomere-free ends (TFEs) [6]: but not in telomerase-positive and ALT-negative HeLa cells
- telomere-free ends (TFEs) [7]: significantly increased the presence of telomere-free ends (TFEs)

- IC50 [1]: 0.5 to 1 µM
- microsomal stability [2]: good microsomal stability
Structure (SMILES): Cc1cc(=O)[nH]c(-n2nc(-c3ccccc3)cc2NC(=O)c2cc(-c3ccccc3)on2)n1 [Compound 32, N-(1-(4-Methyl-6-oxo-1,6-dihydropyrimidin-2-yl)-3-phenyl-1H-pyrazol-5-yl)-5-phenylisoxazole-3-carboxamide]
- clonogenic cell survival [3]: significantly decreased cell survival
- inhibition of major cytochrome P450 isoforms [4]: do not significantly inhibit major cytochrome P450 isoforms
- IC50 [5]: 0.24 µM
- telomere-free ends (TFEs) [6]: but not in telomerase-positive and ALT-negative HeLa cells
- telomere-free ends (TFEs) [7]: significantly increased the presence of telomere-free ends (TFEs)
